Experimental data: US11254676B2, “Pyrazole derivative compound and use thereof” (HANMI PHARM. CO., LTD., priority 2017, dated 2022)
pIC50: −log10 of the molar value.

Columns and labels:
[1] = molecular target: LSD1 (Homo sapiens (Human), UniProt O60341); assay: LSD1 histone demethylase inhibition, LSD1 fluorescence analysis kit (BPS Bioscience); assay type: biochemical; conditions: H2O2/HRP/Amplex Red fluorescence readout
Text: The results are expressed as an IC50 value. As for a control, GSK2879552 (available from GlaxoSmithKline USA) was used.

[2] = system: NCI-H1417 cells; assay: Cell growth suppression test, CellTiter-Glo Luminescent Cell Viability Assay; assay type: cell-based; conditions: Homo sapiens, 240 h; NCI-H1417 cells treated for 10 days
Procedure: Cell growth suppression effects of the synthesized compounds on NCI-H1417 cells were identified. The cells were treated with the synthesized compounds for 10 days. Then, in order to test the cell growth suppression, CellTiter-Glo Luminescent Cell Viability Assay (available from Promega, USA) was used. This test is to measure emission signals proportional to the number of ATPs based on a fixed amount of ATPs, which represents the presence of metabolically active cells, thereby determining the number of viable cells. The results are expressed as a GI50 value. As for a control, GSK2879552 (available from GlaxoSmithKline USA) was used.

SMILES	pIC50 [1]	GI50 [2] [nM]
O=C(O)c1ccc(CN2CCC(CN[C@@H]3C[C@H]3c3ccccc3)CC2)cc1 [Control, GSK2879552, reference compound]	6.51	591
CN[C@@H]1CCCN(C(=O)c2cc(-c3ccc(C#N)c(F)c3)n(-c3ccc(C4CC4)cc3F)n2)C1 [Example 6, (R)-4-(1-(4-cyclopropyl-2-fluorophenyl)-3-(3-(methylamino)piperidine-1-carbonyl)-1H-pyrazole-5-yl)-2-fluorobenzonitrile]	7.68	48
N#Cc1ccc(-c2cc(C(=O)N3CCC[C@@H](N)C3)nn2-c2c(F)cc(N3CCCC3)cc2F)cc1F [Example 74, (R)-4-(3-(3-aminopiperidine-1-carbonyl)-1-(2,6-difluoro-4-(pyrrolidine-1-yl)phenyl)-1H-pyrazole-5-yl)-2-fluorobenzonitrile]	–	8.8
CC(C)(C)c1ccc(-n2nc(C(=O)N3CCC[C@@H](N)C3)cc2-c2ccc(C#N)cc2)c(F)c1 [Example 42, (R)-4-(3-(3-aminopiperidine-1-carbonyl)-1-(4-(tert-butyl)-2-fluorophenyl)-1H-pyrazole-5-yl)benzonitrile]	–	226
